Here are results for 5 molecules from patent US20120238554A1, “SALTS OF POTASSIUM ATP CHANNEL OPENERS AND USES THEREOF” (priority 2007, published 2012).

SMILES strings stand for the structures. Like-named read-outs stand apart in the source and are kept apart here.

Series [1] deals with high-fructose diet rats. Particulars: rat, in vivo; cited from earlier work.
Series [2] concerns Zucker rats. Particulars: oral 1-10 mg/kg/day, 14 days; cited from earlier work.
For series [3] the following is noted: pH 2.
Method: Solubility concentrations were determined using area-percent calculations with HPLC calibration curves.
Series [4] is described as follows: Moisture sorption analysis. In kind it is physicochemical. Here is the method:
Moisture Sorption Analysis was performed with a Hiden IGAsorp Moisture Sorption Instrument, Samples were first dried at 0% relative humidity at 25° C. until an equilibrium weight was reached, or for a maximum of 4 hours. Samples were then subjected to an isothermal (25° C.) scan from 10-90% relative humidity in steps of 10%. The samples were allowed to equilibrate to an asymptotic weight at each point for a maximum of 4 hours. Following absorption, a desorption scan from […] relative humidity (at 25° C.) was run in steps of −10%, again allowing a maximum of 4 hours for the samples to equilibrate. The resulting samples after desorption were dried at 80° C. for two hours and analyzed by XRPD.

The nature of series [5]: Slurry studies of inter-conversion of the solid form. Particulars: n-heptane, dichloromethane; for inter-conversion of the solid form in slurry: room temperature, 7 and 14 days, toluene (Table 16 Form B: CH2Cl2, THF, t-AmOH).
Series [6] is described as follows: Form conversion and degradation under thermal stress (60° C.). The procedure:
Studies were also conducted to evaluate the likelihood for conversion and degradation under thermal stress.

A short description of series [7]: Polymorph screening crystallizations and characterization of forms (XRPD, DSC, TGA). In kind it is physicochemical. The procedure:
DSC analysis were conducted with a Mettler 822 DSC, by measuring the amount of energy released by a sample, as the sample was heated from 30° C. to between 300-500° C. at a rate of 10° C./min. Typical applications of DSC analysis include determination of melting point temperature and the heat of melting; measurement of the glass transition temperature; curing and crystallization studies; and identification of phase transformations.
TGA measurements were conducted with a Mettler 851 SDTA/TGA, by measuring weight loss as a function of increasing temperature, as the samples were heated from 30° C. to 230° C. at a rate of 10° C./min. The TCA can be used to analyze desorption and decomposition behavior, characterize oxidation behavior, set burnout or conditioning parameters (temperature/ramp rate/time), and determine chemical composition.
XRPD samples were analyzed with a Shimadzu XRD-6000 system, using a Cu Kα, 40 kV, 40 mA X-ray tube. The divergence and scatter slits were 1.00 deg, and the receiving slit was 0.30 mm. Samples were continuously scanned at a range of 3.0-45.0 deg, with a step size of 0.04 deg., at a scan rate of 2 deg/min.
After hot filtration the vials were placed in a refrigerator (4° C.) for 16 hours. […] All solids were dried in vacuo at ambient temperature and 30 in. Hg.
After hot filtration the vials were then slowly cooled to room temperature at the rate of 20° C./h and stirred at room temperature for 1-2 hours. All solids were dried in vacuo at ambient temperature and 30 in. Hg.
Solvents for crystallizations were chosen based on the solubility screen summarized below.

Series [8] has as its system hypertriglyceridemic patients. The procedure:
A clinical study was conducted in 12 hypertriglyceridemic patients. […] After day 8 they were crossed over from one formulation to the other formulation. […] The endpoint of the study was percentage change from baseline to day 15 of triglycerides, total cholesterol, LDL cholesterol, HDL cholesterol and non-HDL cholesterol. Lipid parameters were measured at baseline and on days 7 and 15. Blood pressure was collected at multiple time points.

For series [9] the following is noted: mouse, in vivo; for AUC0-6: 50 mg/kg.
Method: The study used 4 mice dosed per treatment arm. Following, a single intravenous or oral dose, administered by gavage, pharmacokinetic samples were collected at 4 time points: 0.5, 1, 3, and 6 hours post-dosing. Two mice were sampled at each timepoint, with each mouse contributing samples to two timepoints. Each test drug was administered as a 50 mg/kg dose, which yields nearly equal molar concentrations. […] Blood samples were collected into tubes containing dipotassium EDTA as the anticoagulant and placed on ice packs until centrifugation (at 3000 rpm for 10 minutes at 4° C.). After centrifugation, samples were stored at −70° C. until they were thawed for analysis. Circulating drug levels were measured using a precise and reproducible LC-MS/MS assay.
Series [10] concerns hypertriglyceridemic patients. The series is described as follows: Crossover of formulations U and K′ (435 mg/day diazoxide choline): lipid responses. It counts as in vivo, human. Particulars: 15 days, 435 mg/day diazoxide choline once daily. The procedure:
A clinical study was conducted in 12 hypertriglyceridemic patients. […] Treatment continued for 16 days. The endpoint of the study was percentage change from baseline to day 15 of triglycerides, total cholesterol, LDL cholesterol, HDL cholesterol and non-HDL cholesterol. Lipid parameters were measured at baseline and on days 7 and 15. Blood pressure was collected at multiple time points.

Series [11] concerns healthy volunteers. The procedure:
(§1) A randomized double-blind, placebo-controlled clinical trial was conducted in 24 healthy volunteers. They were randomized in a 2:1 ratio of treated to placebo. […] The dose was administered once per day in the morning for a period of 7 days. A number of lipid parameters were measured at baseline and again on day 7 including fasting triglycerides, total cholesterol, LDL cholesterol, HDL cholesterol, and non-HDL cholesterol. Additionally, blood pressure was measured on a daily basis.
In PK008, the dose was administered as one and one ½ tablet formulation K′.

Series [12] concerns healthy volunteers. The procedure:
as §1
The source holds these as a separate data set.

Series [13] deals with obese Zucker rats. Particulars: 5 mg/kg/day, cited from earlier work.
Series [14] is described as follows: Excipient compatibility study for diazoxide choline salt. It counts as physicochemical.
Where [15] appears, read: 25° C., listed as Potassium diazoxide salt.
Setting [16] is: Study EC004, 435 mg diazoxide choline, 7 days.
Where [17] appears, read: Study TR002, 508 mg diazoxide choline, 49 days.
Setting [18] is: 300 mg diazoxide/day, formulation U.
Where [19] appears, read: baseline to day 7, 300 mg diazoxide/day as formulation U.

With `N#CNC(=NCCc1ccccc1Cl)c1cncc(N)c1` [KRN4884], in series [1], the “Hepatic triglyceride lipase activity” value is recorded as “not affected” and the “lipoprotein lipase (LPL) activity in muscle” value is listed as “significantly increased”. In addition, in [2], the “serum insulin and glucose levels” value is reported as “no change”; the serum triglyceride levels entry is “dose dependently reduce”.
`CC1=NS(=O)(=O)c2cc(Cl)ccc2[N-]1.[K+]` [potassium salt of diazoxide]: the “solid form after the solubility analysis (XRPD)” value in series [3] is reported as “changed back to the free form diazoxide”. For the same molecule, in series [4], the “crystalline form after moisture sorption/desorption (XRPD)” value is “changed to an alternate crystalline form”. Moreover, the “Moisture Sorption (hygroscopicity)” value in [4] (25° C.) was “hygroscopic”; in [4] (setting [15]), “deliquescent -”. Besides, the “hydrate formation (hysteresis upon desorption)” value in series [4] (25° C.) is “hemihydrate from 0-30% RH and a monohydrate from 35-75% RH”; in series [4] (setting [15]) it was “hemi/monohydrate”. The water absorbed in series [4] (60% RH, 25° C.) amounted to 5.4 wt %; in [4] (90% RH, 25° C.), 38.3 wt %. Further, the “degradation after slurry study (HPLC gradient area percent)” value in [5] (toluene, 14 days) is recorded as “did not show any significant degradation”. Also, the “inter-conversion of the solid form in slurry” value in series [5] is “no propensity of inter-conversion”. The “degradation under thermal stress (HPLC gradient area percent)” value in series [6] (60° C., 14 days) is on record as “did not show any significant degradation”. In addition, the “form conversion and degradation under thermal stress (XRPD, DSC)” value in series [6] (60° C., closed, protected from light, 7 and 14 days) is reported as “showed unique peaks”. For the same molecule, the Form result in series [7] (Table 26, slow cooling, Water) was “Free form”; in [7] (Table 30, single solvent, fast-cooling, MeCN), “C + D”.
Turning to `CC1=Nc2ccc(Cl)cc2S(=O)(=O)[N-]1.C[N+](C)(C)CCO` [diazoxide choline], the “solid form after the solubility analysis (XRPD)” value in [3] is recorded as “changed back to the free form diazoxide”. Also, the “average drop in standing blood pressure” value in [8] (7 days of treatment) is listed as about 8 mmHg. For the same molecule, the “standing diastolic blood pressure” value in series [8] (after 7 days of treatment, baseline 80) came to 75.5 mmHg. In [8] (after 7 days of treatment, baseline 123), the “standing systolic blood pressure” value is on record as 112 mmHg. Further, the “supine diastolic blood pressure” value in series [8] (after seven days of treatment, baseline 69) came out at 62.5 mmHg. In series [8] (after seven days of treatment, baseline 121), the “supine systolic blood pressure” value was 116 mmHg. Further, the “average drop in supine blood pressure” value in series [8] (seven days of treatment) is given as about 6 mmHg. In addition, the “hydrate formation (hysteresis upon desorption)” value in series [4] (25° C.) is recorded as “does not form a stable hydrate”. In addition, in [4] (25° C., listed as Choline diazoxide salt), the “Moisture Sorption (hygroscopicity)” value is recorded as “deliquescent -”. The “Moisture Sorption (hygroscopicity)” value in series [4] (25° C., listed as choline salt of diazoxide) is “hygroscopic”. The moisture absorbed entry in series [4] (80% relative humidity, 25° C.) was “over 28%”. Further, the “crystalline form after moisture sorption/desorption (XRPD)” value in [4] (listed as choline salt of diazoxide) is “changed to an alternate crystalline form”. The “inter-conversion of the solid form in slurry” value in series [5] (listed as Choline Diazoxide Salt) was “no propensity of inter-conversion”. Further, in series [6], the “degradation under thermal stress (HPLC gradient area percent)” value is “did not show any significant degradation”; the “form conversion and degradation under thermal stress (XRPD, DSC)” value was “consistent with the starting material, as well as the presence of additional unique peaks”. In series [9], this molecule registered an Absolute oral bioavailability of 100%. In [9] (iv), this molecule came in with an AUC0-6 of 137.176 µg·h/mL. Also, the AUC0-6 in series [9] (po) turned out to be 141.26 µg·h/mL. Moreover, in [10], the HDL cholesterol entry was “marked increase”; the “triglycerides, total cholesterol, LDL cholesterol and nonHDL cholesterol” value is “marked reductions”. Further, the “reduction in diastolic blood pressure” value in [11] (7 days, 300 mg diazoxide/day as formulation U, healthy volunteers) was found to be 6.2 mmHg. Besides, in series [11] (setting [16]), the “Diastolic blood pressure, Baseline” value is 69.4 mmHg; the “Diastolic blood pressure, End of treatment” value is reported as 63.2 mmHg; the “Systolic blood pressure, Baseline” value came out at 113.2 mmHg; the “Systolic blood pressure, End of treatment” value is 113.5 mmHg. Moreover, in [11] (setting [17]), the “Diastolic blood pressure, Baseline” value is reported as 77.7 mmHg; the “Diastolic blood pressure, End of treatment” value is 67.0 mmHg; the “Systolic blood pressure, Baseline” value is 118.1 mmHg; the “Systolic blood pressure, End of treatment” value worked out at 117.0 mmHg. Moreover, in series [12] (300 mg diazoxide/day, 7 days), the “HDL cholesterol, Percent change from base-line” value is given as 8.2%; the “LDL cholesterol, Percent change from base-line” value is −5.4%; the “Total cholesterol, Percent change from base-line” value was −2.3%; the “Triglycerides, Percent change from base-line” value is −13.2%. Besides, the “non-HDL cholesterol, Percent change from base-line” value in series [12] (300 mg diazoxide/day, 7 days) is reported as −6.3%. Also, in series [12] (setting [18]), the “HDL cholesterol, Baseline mean ± SEM” value was 49 ± 3.3 mg/dL; the “HDL cholesterol, Day 7 mean ± SEM” value stood at 53 ± 2.9 mg/dL; the “LDL cholesterol, Baseline mean ± SEM” value worked out at 111 ± 5.8 mg/dL; the “LDL cholesterol, Day 7 mean ± SEM” value is 105 ± 4.9 mg/dL. In series [12] (setting [18]), the “Total cholesterol, Baseline mean ± SEM” value is given as 175 ± 7.5 mg/dL; the “Total cholesterol, Day 7 mean ± SEM” value amounted to 171 ± 6.4 mg/dL; the “Triglycerides, Baseline mean ± SEM” value is 76 ± 7.8 mg/dL; the “Triglycerides, Day 7 mean ± SEM” value came to 66 ± 3.9 mg/dL. For the same molecule, in series [12] (setting [18]), the “non-HDL cholesterol, Baseline mean ± SEM” value was found to be 126 ± 6.6 mg/dL and the “non-HDL cholesterol, Day 7 mean ± SEM” value amounted to 118 ± 5.5 mg/dL. In series [12] (setting [19]), the “increase HDL cholesterol” value came to 8.2%; the “reduction in total cholesterol, LDL cholesterol and non-HDL cholesterol versus placebo arm” value is “reduction in the diazoxide choline treated arm was greater”; the reduction of triglycerides turned out to be 13.2%.
Take `Cl.N#CN=C(Nc1ccc(N)nc1)N[C@@H]1C[C@@H]2CC[C@H]1C2` [AL0671, (+)—N-(6-amino-3-pyridil)-N′-[(1S,2R,4R)-bicyclo-[2.2.1]hept-2-yl]-N″-cyanoguanidine hydrochloride]: the “serum total triglyceride, chylomicron and very-low-density lipoprotein levels” value in series [13] (1 or 2 weeks) is “significantly decrease”. For the same molecule, in series [13] (postheparin plasma), the “increase of hepatic triglyceride lipase activities” value was 3 fold and the “increase of lipoprotein lipase activities” value is reported as 4 fold.
For the molecule `CC1=Nc2ccc(Cl)cc2S(=O)(=O)N1` [Diazoxide Control], the “diazoxide choline salt assayed in mixture with excipient” value in [14] (1 Month 40° C./75% RH) is on record as 99.0 % (w/w); in series [14] (1 Month 50° C.), 99.4 % (w/w).
